Experiment: Absorbance and fluorescence emission spectra (SpectraMax M2)
Type: physicochemical
Conditions: BDC library, Table 2
Procedure: BDC-8 (Blue): absorbance λmax=473 nm, emission λmax=585 nm; MK101-8 (Green): absorbance λmax=474 nm, emission λmax=563 nm; MKHA374-48 (Yellow): absorbance λmax=468 nm, λem=557 nm. The corresponding spectra of a reported BODIPY (BD-27; Red) are also included for comparison: absorbance λmax=551 nm, emission λmax=568 nm. The structures of BDC-8, MK101-8, MKHA374-48 and BD-27 are also depicted.
(§1) ^1H-NMR, ^19F-NMR and ^13C-NMR spectra were recorded on Bruker ACF300 (300 MHz), DPX300 (300 MHz) and AMX500 (500 MHz) spectrometers. High resolution mass spectra (ESI) were obtained on a Finnigan/MAT 95XL-T spectrometer. Spectroscopic and quantum yield data were measured on a SpectraMax M2 spectrophotometer (Molecular Devices). Data analysis was performed using GraphPrism 5.0. Analytical characterization was performed on a HPLC-MS (Agilent-1200 series) with a DAD detector and a single quadrupole mass spectrometer (6130 series) with an ESI probe. Analytical HPLC method: eluents, A: H2O (0.1% HCOOH), B: CH3CN (0.1% HCOOH), gradient 5% B to 95% B (10 min). Reverse-phase Phenomenex C18 Luna column (4.6×50 mm^2, 3.5 […]), flow rate: 1 mL/min.

Row | Structure (SMILES) | λmax Absorp. [nm] | λmax Emission [nm]
1 | CC(C)(C)c1cn(-c2ccc3n2[B-](F)(F)[N+]2=C(N4CCCCC4)C=CC2=C3c2ccc(N)cc2)nn1 [BDC-1] | 475 | 593
2 | CN(C)Cc1cn(-c2ccc3n2[B-](F)(F)[N+]2=C(N4CCCCC4)C=CC2=C3c2ccc(N)cc2)nn1 [BDC-2] | 469 | 587
3 | CCCC(C)c1cn(-c2ccc3n2[B-](F)(F)[N+]2=C(N4CCCCC4)C=CC2=C3c2ccc(N)cc2)nn1 (centres unmarked) [BDC-3] | 475 | 567
4 | Nc1ccc(C2=C3C=CC(N4CCCCC4)=[N+]3[B-](F)(F)n3c2ccc3-n2cc(C3CC3)nn2)cc1 [BDC-4] | 475 | 590
5 | Nc1ccc(C2=C3C=CC(N4CCCCC4)=[N+]3[B-](F)(F)n3c2ccc3-n2cc(C3CCCC3)nn2)cc1 [BDC-5] | 476 | 582
6 | Nc1ccc(C2=C3C=CC(N4CCCCC4)=[N+]3[B-](F)(F)n3c2ccc3-n2cc(C3CCCCC3)nn2)cc1 [BDC-6] | 473 | 582
7 | Nc1ccc(C2=C3C=CC(N4CCCCC4)=[N+]3[B-](F)(F)n3c2ccc3-n2cc(CC3CCCC3)nn2)cc1 [BDC-7] | 476 | 573
8 | Nc1ccc(C2=C3C=CC(N4CCCCC4)=[N+]3[B-](F)(F)n3c2ccc3-n2cc(CC3CCCCC3)nn2)cc1 [BDC-8] | 473 | 585
9 | Cc1ccc(-c2cn(-c3ccc4n3[B-](F)(F)[N+]3=C(N5CCCCC5)C=CC3=C4c3ccc(N)cc3)nn2)cc1 [BDC-10] | 470 | 564
10 | CC(C)(C)c1ccc(-c2cn(-c3ccc4n3[B-](F)(F)[N+]3=C(N5CCCCC5)C=CC3=C4c3ccc(N)cc3)nn2)cc1 [BDC-11] | 471 | 552
11 | CCCCc1ccc(-c2cn(-c3ccc4n3[B-](F)(F)[N+]3=C(N5CCCCC5)C=CC3=C4c3ccc(N)cc3)nn2)cc1 [BDC-12] | 473 | 594
12 | CN(C)c1ccc(-c2cn(-c3ccc4n3[B-](F)(F)[N+]3=C(N5CCCCC5)C=CC3=C4c3ccc(N)cc3)nn2)cc1 [BDC-13] | 475 | 616
13 | COc1cc(OC)cc(-c2cn(-c3ccc4n3[B-](F)(F)[N+]3=C(N5CCCCC5)C=CC3=C4c3ccc(N)cc3)nn2)c1 [BDC-14] | 473 | 578
14 | Nc1ccc(C2=C3C=CC(N4CCCCC4)=[N+]3[B-](F)(F)n3c2ccc3-n2cc(-c3ccc(OC(F)(F)F)cc3)nn2)cc1 [BDC-15] | 469 | 549
15 | Nc1ccc(C2=C3C=CC(N4CCCCC4)=[N+]3[B-](F)(F)n3c2ccc3-n2cc(-c3ccc(F)c(F)c3)nn2)cc1 [BDC-16] | 471 | 585

Same assay, conditions: FIG. 2 normalized spectra

Row | Structure (SMILES) | absorbance λmax [nm] | emission λmax [nm]
16 | Nc1ccc(C2=C3C=CC(N4CCCCC4)=[N+]3[B-](F)(F)n3c2ccc3-n2cc(CC3CCCCC3)nn2)cc1 [BDC-8] | 473 | 585

Experiment: Quantum yield measurements versus Acridine Yellow in EtOH
Type: physicochemical
Conditions: BDC library, Table 2; excitation 460 nm
Procedure: as §1
Quantum yields were calculated by measuring the integrated emission area of the fluorescent spectra and comparing to the area measured for Acridine Yellow in EtOH when excited at 460 nm (Φfluorescence^AcridineYellow=0.47). Quantum yields for the amino-triazolyl-BODIPYs were calculated using the equation below, where F represents the area of fluorescent emission, η is the refractive index of the solvent, and Abs is absorbance at the excitation wavelength selected for standards and samples. Emission was integrated between 510 and 700 nm.

Row | Structure (SMILES) | φ (quantum yield) [%]
17 | CC(C)(C)c1cn(-c2ccc3n2[B-](F)(F)[N+]2=C(N4CCCCC4)C=CC2=C3c2ccc(N)cc2)nn1 [BDC-1] | 0.18
18 | CN(C)Cc1cn(-c2ccc3n2[B-](F)(F)[N+]2=C(N4CCCCC4)C=CC2=C3c2ccc(N)cc2)nn1 [BDC-2] | 0.13
19 | CCCC(C)c1cn(-c2ccc3n2[B-](F)(F)[N+]2=C(N4CCCCC4)C=CC2=C3c2ccc(N)cc2)nn1 (centres unmarked) [BDC-3] | 0.37
20 | Nc1ccc(C2=C3C=CC(N4CCCCC4)=[N+]3[B-](F)(F)n3c2ccc3-n2cc(C3CC3)nn2)cc1 [BDC-4] | 0.16
21 | Nc1ccc(C2=C3C=CC(N4CCCCC4)=[N+]3[B-](F)(F)n3c2ccc3-n2cc(C3CCCC3)nn2)cc1 [BDC-5] | 0.16
22 | Nc1ccc(C2=C3C=CC(N4CCCCC4)=[N+]3[B-](F)(F)n3c2ccc3-n2cc(C3CCCCC3)nn2)cc1 [BDC-6] | 0.24
23 | Nc1ccc(C2=C3C=CC(N4CCCCC4)=[N+]3[B-](F)(F)n3c2ccc3-n2cc(CC3CCCC3)nn2)cc1 [BDC-7] | 0.23
24 | Nc1ccc(C2=C3C=CC(N4CCCCC4)=[N+]3[B-](F)(F)n3c2ccc3-n2cc(CC3CCCCC3)nn2)cc1 [BDC-8] | 0.24
25 | Cc1ccc(-c2cn(-c3ccc4n3[B-](F)(F)[N+]3=C(N5CCCCC5)C=CC3=C4c3ccc(N)cc3)nn2)cc1 [BDC-10] | 0.28
26 | CC(C)(C)c1ccc(-c2cn(-c3ccc4n3[B-](F)(F)[N+]3=C(N5CCCCC5)C=CC3=C4c3ccc(N)cc3)nn2)cc1 [BDC-11] | 0.74
27 | CCCCc1ccc(-c2cn(-c3ccc4n3[B-](F)(F)[N+]3=C(N5CCCCC5)C=CC3=C4c3ccc(N)cc3)nn2)cc1 [BDC-12] | 0.09
28 | CN(C)c1ccc(-c2cn(-c3ccc4n3[B-](F)(F)[N+]3=C(N5CCCCC5)C=CC3=C4c3ccc(N)cc3)nn2)cc1 [BDC-13] | 0.03
29 | COc1cc(OC)cc(-c2cn(-c3ccc4n3[B-](F)(F)[N+]3=C(N5CCCCC5)C=CC3=C4c3ccc(N)cc3)nn2)c1 [BDC-14] | 0.18
30 | Nc1ccc(C2=C3C=CC(N4CCCCC4)=[N+]3[B-](F)(F)n3c2ccc3-n2cc(-c3ccc(OC(F)(F)F)cc3)nn2)cc1 [BDC-15] | 0.19
31 | Nc1ccc(C2=C3C=CC(N4CCCCC4)=[N+]3[B-](F)(F)n3c2ccc3-n2cc(-c3ccc(F)c(F)c3)nn2)cc1 [BDC-16] | 0.18

From patent US9513294B2, “Megastokes amino-triazolyl-BODIPY compounds and applications to live neuron staining and human serum albumin FA1 drug site probing” (National University of Singapore, priority 2012, dated 2016)
